Columns and labels:
[1] = target: Receptor tyrosine-protein kinase erbB-4 (Homo sapiens) (UniProt Q15303); test: Inhibition of wild-type human partial length ERBB4 (L690 to K994 residues) expressed in bacterial expression system assessed as residual activity at 1 uM by Kinomescan method relative to control
[2] = test system: Epidermal growth factor receptor (Homo sapiens), P00533 [L861Q]; test: Inhibition of human partial length EGFR L861Q mutant (R669 to V1011 residues) expressed in bacterial expression system assessed as residual activity at 1 uM by Kinomescan method relative to control
[3] = target: Dual specificity protein kinase TTK (Homo sapiens) (UniProt P33981); test: Inhibition of wild-type human partial length TTK (N505 to V798 residues) expressed in bacterial expression system assessed as residual activity at 1 uM by Kinomescan method relative to control
Dual specificity protein kinase TTK (Homo sapiens), sequence (P33981 whole entry, the tested form may be a part): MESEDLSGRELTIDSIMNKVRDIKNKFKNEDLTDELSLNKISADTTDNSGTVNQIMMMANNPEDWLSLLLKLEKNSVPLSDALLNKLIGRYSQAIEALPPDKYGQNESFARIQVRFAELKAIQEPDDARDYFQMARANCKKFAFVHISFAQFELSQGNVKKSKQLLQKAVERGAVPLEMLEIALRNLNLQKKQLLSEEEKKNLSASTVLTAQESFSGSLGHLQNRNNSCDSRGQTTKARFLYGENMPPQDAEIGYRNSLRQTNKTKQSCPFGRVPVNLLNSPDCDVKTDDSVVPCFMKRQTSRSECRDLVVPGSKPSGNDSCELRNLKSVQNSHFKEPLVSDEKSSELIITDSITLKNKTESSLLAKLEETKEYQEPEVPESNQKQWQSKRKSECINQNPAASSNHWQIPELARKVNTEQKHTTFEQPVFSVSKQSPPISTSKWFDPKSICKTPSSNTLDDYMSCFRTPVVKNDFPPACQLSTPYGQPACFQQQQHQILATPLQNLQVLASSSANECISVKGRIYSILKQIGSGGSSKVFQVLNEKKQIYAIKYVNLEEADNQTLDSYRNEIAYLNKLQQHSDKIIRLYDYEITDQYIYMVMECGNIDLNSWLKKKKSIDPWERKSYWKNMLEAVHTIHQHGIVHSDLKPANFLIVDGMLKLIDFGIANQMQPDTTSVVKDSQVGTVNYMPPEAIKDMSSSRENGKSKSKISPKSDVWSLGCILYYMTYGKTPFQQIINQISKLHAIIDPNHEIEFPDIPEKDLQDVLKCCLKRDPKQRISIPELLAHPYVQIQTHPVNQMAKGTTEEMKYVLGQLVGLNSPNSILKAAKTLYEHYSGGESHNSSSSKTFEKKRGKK

[4] = target: Serine/threonine-protein kinase 4 (Homo sapiens) (UniProt Q13043); test: Inhibition of wild-type human full length MST1 (M1 to F487 residues) expressed in bacterial expression system assessed as residual activity at 1 uM by Kinomescan method relative to control
[5] = target: Tyrosine-protein kinase CSK (Homo sapiens) (UniProt P41240); test: Inhibition of wild-type human full length CSK (M1 to L450 residues) expressed in bacterial expression system assessed as residual activity at 1 uM by Kinomescan method relative to control
Tyrosine-protein kinase CSK (Homo sapiens), sequence (P41240 2-450 limits assumed): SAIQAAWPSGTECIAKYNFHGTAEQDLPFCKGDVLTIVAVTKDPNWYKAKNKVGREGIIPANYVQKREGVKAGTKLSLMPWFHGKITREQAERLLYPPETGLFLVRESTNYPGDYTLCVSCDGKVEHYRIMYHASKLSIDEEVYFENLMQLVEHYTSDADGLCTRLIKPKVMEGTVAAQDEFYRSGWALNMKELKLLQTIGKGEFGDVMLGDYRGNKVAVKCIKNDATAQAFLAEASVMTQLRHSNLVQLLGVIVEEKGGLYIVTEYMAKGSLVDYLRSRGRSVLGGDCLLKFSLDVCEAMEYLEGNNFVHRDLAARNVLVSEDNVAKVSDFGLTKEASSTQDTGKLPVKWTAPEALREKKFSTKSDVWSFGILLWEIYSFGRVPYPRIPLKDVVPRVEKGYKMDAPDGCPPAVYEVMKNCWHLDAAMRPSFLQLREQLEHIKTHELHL

[6] = target: Epidermal growth factor receptor (Homo sapiens, UniProt P00533); test: Inhibition of wild-type human partial length EGFR (R669 to V1011 residues) expressed in bacterial expression system assessed as residual activity at 1 uM by Kinomescan method relative to control
[7] = target: Receptor tyrosine-protein kinase erbB-2 (Homo sapiens) (UniProt P04626); test: Inhibition of wild-type human partial length ERBB2 (K646 to V1225 residues) expressed in mammalian expression system assessed as residual activity at 1 uM by Kinomescan method relative to control
[8] = target: Mitogen-activated protein kinase kinase kinase 1 (Homo sapiens) (UniProt Q13233); test: Inhibition of wild-type human partial length MAP3K1 (L1202 to W1512 residues) expressed in mammalian expression system assessed as residual activity at 1 uM by Kinomescan method relative to control
Mitogen-activated protein kinase kinase kinase 1 (Homo sapiens), sequence (Q13233 whole entry, the tested form may be a part): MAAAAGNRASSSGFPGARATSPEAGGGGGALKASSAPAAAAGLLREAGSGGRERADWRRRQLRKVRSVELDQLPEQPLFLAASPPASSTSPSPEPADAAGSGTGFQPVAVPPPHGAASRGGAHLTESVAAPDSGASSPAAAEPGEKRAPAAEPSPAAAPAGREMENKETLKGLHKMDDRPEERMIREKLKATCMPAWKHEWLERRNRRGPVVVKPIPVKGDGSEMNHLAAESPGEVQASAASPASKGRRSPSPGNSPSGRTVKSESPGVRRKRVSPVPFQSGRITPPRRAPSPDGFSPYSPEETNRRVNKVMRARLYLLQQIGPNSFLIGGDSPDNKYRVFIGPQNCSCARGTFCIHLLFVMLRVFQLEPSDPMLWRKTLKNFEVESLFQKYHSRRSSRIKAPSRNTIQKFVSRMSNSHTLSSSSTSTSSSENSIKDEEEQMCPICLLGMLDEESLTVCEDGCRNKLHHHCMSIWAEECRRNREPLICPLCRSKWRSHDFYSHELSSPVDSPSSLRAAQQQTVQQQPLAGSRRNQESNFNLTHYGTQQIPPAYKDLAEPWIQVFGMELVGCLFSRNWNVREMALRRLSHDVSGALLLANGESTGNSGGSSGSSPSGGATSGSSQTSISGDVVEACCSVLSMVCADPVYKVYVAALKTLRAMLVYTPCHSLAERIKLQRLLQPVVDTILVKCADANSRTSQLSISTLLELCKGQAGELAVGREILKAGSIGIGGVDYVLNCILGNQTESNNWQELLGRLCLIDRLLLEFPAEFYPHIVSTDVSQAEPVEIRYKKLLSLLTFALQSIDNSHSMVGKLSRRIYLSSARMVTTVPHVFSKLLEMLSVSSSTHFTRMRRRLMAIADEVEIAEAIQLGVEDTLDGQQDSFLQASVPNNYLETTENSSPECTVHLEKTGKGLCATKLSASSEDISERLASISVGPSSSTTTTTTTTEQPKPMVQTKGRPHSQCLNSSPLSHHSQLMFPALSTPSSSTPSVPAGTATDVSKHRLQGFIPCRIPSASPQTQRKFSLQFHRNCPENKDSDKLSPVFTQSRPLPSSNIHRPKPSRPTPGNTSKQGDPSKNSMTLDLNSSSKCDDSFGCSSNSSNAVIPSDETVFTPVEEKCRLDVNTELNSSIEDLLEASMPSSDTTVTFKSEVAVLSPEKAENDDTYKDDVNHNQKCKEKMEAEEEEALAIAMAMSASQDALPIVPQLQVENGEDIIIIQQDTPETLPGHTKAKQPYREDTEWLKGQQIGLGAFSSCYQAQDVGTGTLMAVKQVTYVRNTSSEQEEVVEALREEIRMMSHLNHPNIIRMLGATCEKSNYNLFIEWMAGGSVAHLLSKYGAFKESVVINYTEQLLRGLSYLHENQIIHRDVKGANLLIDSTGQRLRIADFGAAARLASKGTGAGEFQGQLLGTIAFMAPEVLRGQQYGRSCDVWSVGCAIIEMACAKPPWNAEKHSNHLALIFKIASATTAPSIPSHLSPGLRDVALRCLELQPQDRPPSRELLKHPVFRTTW

[9] = target: Cyclin-dependent kinase 19 (Homo sapiens) (UniProt Q9BWU1); test: Inhibition of wild-type human partial length CDK11 (M1 to N360 residues) expressed in bacterial expression system assessed as residual activity at 1 uM by Kinomescan method relative to control
[10] = target: Calcium/calmodulin-dependent protein kinase type II subunit beta (Homo sapiens) (UniProt Q13554); test: Inhibition of wild-type human partial length CAMK2B (M1 to Q380 residues) expressed in bacterial expression system assessed as residual activity at 1 uM by Kinomescan method relative to control
[11] = target: BDNF/NT-3 growth factors receptor (Homo sapiens) (UniProt Q16620); test: Inhibition of wild-type human partial length TRKB (Q547 to G838 residues) expressed in mammalian expression system assessed as residual activity at 1 uM by Kinomescan method relative to control
[12] = target: Casein kinase I isoform delta (Homo sapiens) (UniProt P48730); test: Inhibition of wild-type human full length CSNK1D (M1 to K409 residues) expressed in bacterial expression system assessed as residual activity at 1 uM by Kinomescan method relative to control
[13] = test system: Pfeiffer; test: Induction of apoptosis in human Pfeiffer cells assessed as induction of caspase-3 cleavage after 48 hrs by immunoblot; type: functional, cell-based
[14] = target: Tyrosine-protein kinase FRK (Homo sapiens) (UniProt P42685); test: Inhibition of wild-type human partial length FRK (A215 to F503 residues) expressed in bacterial expression system assessed as residual activity at 1 uM by Kinomescan method relative to control
[15] = target: Receptor tyrosine-protein kinase erbB-3 (Homo sapiens) (UniProt P21860); test: Inhibition of wild-type human partial length ERBB3 (G684 to A987 residues) expressed in mammalian expression system assessed as residual activity at 1 uM by Kinomescan method relative to control
[16] = target: Activin receptor type-1B (Homo sapiens) (UniProt P36896); test: Inhibition of wild-type human ACVR1B (S187 to I505 residues) expressed in bacterial expression system assessed as residual activity at 1 uM by Kinomescan method relative to control
[17] = target: Myosin light chain kinase (Homo sapiens) (UniProt Q32MK0); test: Inhibition of wild-type human partial length MLCK (D488 to K800 residues) expressed in bacterial expression system assessed as residual activity at 1 uM by Kinomescan method relative to control
[18] = target: Receptor-type tyrosine-protein kinase FLT3 (Homo sapiens) (UniProt P36888); test: Inhibition of wild-type human partial length autoinhibited FLT3 (H564 to Y969 residues) expressed in mammalian expression system assessed as residual activity at 1 uM by Kinomescan method relative to control
Receptor-type tyrosine-protein kinase FLT3 (Homo sapiens), sequence (P36888 whole entry, the tested form may be a part): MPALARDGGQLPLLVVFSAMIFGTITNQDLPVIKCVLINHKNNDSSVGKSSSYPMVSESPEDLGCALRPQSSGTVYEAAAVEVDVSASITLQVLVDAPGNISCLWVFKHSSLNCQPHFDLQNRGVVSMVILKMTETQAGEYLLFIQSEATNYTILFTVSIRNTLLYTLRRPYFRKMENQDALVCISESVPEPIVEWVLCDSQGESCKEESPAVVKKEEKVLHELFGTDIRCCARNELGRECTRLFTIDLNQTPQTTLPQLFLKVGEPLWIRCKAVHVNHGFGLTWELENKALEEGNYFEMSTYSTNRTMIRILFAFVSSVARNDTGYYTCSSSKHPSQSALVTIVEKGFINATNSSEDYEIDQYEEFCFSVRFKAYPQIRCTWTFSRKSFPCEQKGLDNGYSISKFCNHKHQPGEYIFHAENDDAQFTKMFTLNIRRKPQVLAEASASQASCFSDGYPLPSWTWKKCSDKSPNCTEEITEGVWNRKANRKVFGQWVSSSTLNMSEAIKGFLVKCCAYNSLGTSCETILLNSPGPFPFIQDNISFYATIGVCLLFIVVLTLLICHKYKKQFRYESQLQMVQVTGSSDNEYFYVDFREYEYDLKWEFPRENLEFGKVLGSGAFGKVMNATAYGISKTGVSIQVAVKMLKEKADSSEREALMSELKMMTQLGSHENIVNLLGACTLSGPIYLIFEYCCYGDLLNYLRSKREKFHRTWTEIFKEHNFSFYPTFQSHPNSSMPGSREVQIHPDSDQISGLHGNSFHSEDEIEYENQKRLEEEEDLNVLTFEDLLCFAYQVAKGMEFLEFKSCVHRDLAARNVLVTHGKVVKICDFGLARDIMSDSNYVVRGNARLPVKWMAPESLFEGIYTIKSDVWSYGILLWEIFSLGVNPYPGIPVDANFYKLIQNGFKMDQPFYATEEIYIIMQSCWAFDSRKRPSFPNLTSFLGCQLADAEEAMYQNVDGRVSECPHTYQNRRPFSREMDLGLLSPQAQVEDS

[19] = target: Wee1-like protein kinase 2 (Homo sapiens) (UniProt P0C1S8); test: Inhibition of wild-type human partial length WEE2 (M204 to K492 residues) expressed in bacterial expression system assessed as residual activity at 1 uM by Kinomescan method relative to control
[20] = target: Maternal embryonic leucine zipper kinase (Homo sapiens) (UniProt Q14680); test: Inhibition of wild-type human full length MELK (M1 to V651 residues) expressed in bacterial expression system assessed as residual activity at 1 uM by Kinomescan method relative to control
[21] = target: Discoidin domain-containing receptor 2 (Homo sapiens) (UniProt Q16832); test: Inhibition of wild-type human partial length DDR2 (V555 to E855 residues) expressed in mammalian expression system assessed as residual activity at 1 uM by Kinomescan method relative to control
[22] = target: Ephrin type-B receptor 2 (Homo sapiens) (UniProt P29323); test: Inhibition of wild-type human partial length EPHB2 (I597 to L902 residues) expressed in bacterial expression system assessed as residual activity at 1 uM by Kinomescan method relative to control
[23] = test system: MV4-11; test: Growth inhibition of human MV411 cells; type: functional; conditions: Homo sapiens, MV4-11
[24] = target: Serine/threonine-protein kinase Nek2 (Homo sapiens) (UniProt P51955); test: Inhibition of wild-type human partial length NEK2 (M1 to K309 residues) expressed in bacterial expression system assessed as residual activity at 1 uM by Kinomescan method relative to control
[25] = target: Phosphatidylinositol 4,5-bisphosphate 3-kinase catalytic subunit alpha isoform (Homo sapiens) (UniProt P42336); test: Inhibition of wild-type human partial length PIK3CA (R108 to N1068 residues) expressed in mammalian expression system assessed as residual activity at 1 uM by Kinomescan method relative to control
Phosphatidylinositol 4,5-bisphosphate 3-kinase catalytic subunit alpha isoform (Homo sapiens), sequence (P42336 whole entry, the tested form may be a part, canonical isoform): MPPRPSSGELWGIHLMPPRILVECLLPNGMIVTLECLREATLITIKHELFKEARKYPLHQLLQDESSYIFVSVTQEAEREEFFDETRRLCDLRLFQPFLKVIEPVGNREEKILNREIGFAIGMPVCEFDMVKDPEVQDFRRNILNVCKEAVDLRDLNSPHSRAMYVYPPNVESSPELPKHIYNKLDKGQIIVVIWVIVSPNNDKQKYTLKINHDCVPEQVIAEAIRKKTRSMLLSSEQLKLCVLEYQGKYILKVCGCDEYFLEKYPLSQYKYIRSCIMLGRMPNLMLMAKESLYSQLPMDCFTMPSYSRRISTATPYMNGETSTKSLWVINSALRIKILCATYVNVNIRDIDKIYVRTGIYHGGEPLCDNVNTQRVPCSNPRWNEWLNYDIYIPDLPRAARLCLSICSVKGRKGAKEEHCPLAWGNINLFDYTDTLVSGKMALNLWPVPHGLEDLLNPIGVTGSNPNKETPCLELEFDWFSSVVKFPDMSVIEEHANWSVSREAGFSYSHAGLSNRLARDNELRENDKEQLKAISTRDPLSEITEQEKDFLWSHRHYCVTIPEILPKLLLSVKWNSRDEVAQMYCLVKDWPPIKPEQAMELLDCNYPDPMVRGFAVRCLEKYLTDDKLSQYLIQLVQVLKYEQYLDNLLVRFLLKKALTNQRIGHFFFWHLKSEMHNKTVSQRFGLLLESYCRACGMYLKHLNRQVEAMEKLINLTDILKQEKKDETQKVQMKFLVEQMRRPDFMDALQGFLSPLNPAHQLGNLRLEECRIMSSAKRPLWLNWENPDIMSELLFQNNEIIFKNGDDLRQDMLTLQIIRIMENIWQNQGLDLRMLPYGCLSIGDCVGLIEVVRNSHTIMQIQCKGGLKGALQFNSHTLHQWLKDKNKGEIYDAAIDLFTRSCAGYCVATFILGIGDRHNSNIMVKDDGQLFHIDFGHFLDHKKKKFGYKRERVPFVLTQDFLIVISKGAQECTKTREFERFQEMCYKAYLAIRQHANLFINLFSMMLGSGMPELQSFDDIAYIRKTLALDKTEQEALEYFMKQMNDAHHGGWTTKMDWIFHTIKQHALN

[26] = target: RAC-beta serine/threonine-protein kinase (Homo sapiens) (UniProt P31751); test: Inhibition of wild-type human partial length AKT2 expressed in bacterial expression system assessed as residual activity at 1 uM by Kinomescan method relative to control
[27] = AUC (0 to t) in Sprague-Dawley rat at 1 mg/kg, iv by LC-MS/MS method; type: ADME, organism-based; conditions: in vivo

C=CC(=O)Nc1cc(Nc2cc(-c3cccc(NC(=O)c4ccc(C(C)(C)C)cc4)c3C)cn(C)c2=O)ccc1C(=O)N1CCOCC1
Activity [1]: 95% | Activity [2]: 100% | Activity [3]: 99% | Activity [4]: 95% | Activity [5]: 100% | Activity [6]: 92% | Activity [7]: 97% | Activity [8]: 91% | Activity [9]: 100% | Activity [10]: 100% | Activity [11]: 80% | Activity [12]: 99% | Activity [13]: Dose-dependent effect | Activity [14]: 84% | Activity [15]: 88% | Activity [16]: 100% | Activity [17]: 83% | Activity [18]: 100% | Activity [19]: 100% | Activity [20]: 98% | Activity [21]: 93% | Activity [22]: 100% | GI50 [23]: 2100 nM | Activity [24]: 99% | Activity [25]: 100% | Activity [26]: 95% | AUC(0-t) [27]: 182 ng·h/mL

From ChEMBL document CHEMBL4024706 (Eur J Med Chem, 2017)
